For series [1], the target named is T1, AtPSAT1 (Arabidopsis thaliana, UniProt Q96255).
T1 construct: gene PSAT1; residues 72-430 (71-residue chloroplast transit peptide removed), 359 residues plus N-terminal SNA left after TEV cleavage of His6-tag; E. coli BL21 Gold, pMCSG68; homodimer (~80 kDa by SEC)
T1 sequence (Q96255 72-430): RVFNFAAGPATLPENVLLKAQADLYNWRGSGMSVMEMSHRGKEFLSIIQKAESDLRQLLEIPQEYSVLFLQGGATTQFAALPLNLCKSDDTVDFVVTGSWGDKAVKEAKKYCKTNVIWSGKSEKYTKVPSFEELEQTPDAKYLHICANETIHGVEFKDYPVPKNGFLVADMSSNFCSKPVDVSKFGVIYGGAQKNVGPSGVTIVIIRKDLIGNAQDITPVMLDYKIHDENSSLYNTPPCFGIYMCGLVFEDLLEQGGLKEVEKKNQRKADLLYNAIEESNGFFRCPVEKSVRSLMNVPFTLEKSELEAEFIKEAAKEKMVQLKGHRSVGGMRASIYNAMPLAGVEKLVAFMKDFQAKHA
As to the kind of experiment: X-ray crystallography: conversion of bound PLP to PMP. It is filed as biochemical. Particulars: 10 mM Glu added before crystallization; pH 8.5; Glu itself not present in the structure.

The target in series [2] is T1, AtPSAT1. As to the kind of experiment: X-ray crystallography, […] Å. It is filed as binding. The note with it: covalent; internal aldimine (Schiff base) with K265; 1 mM PLP added; pH 8.5, 0.2 M lithium sulfate.
Series [3] concerns the target T1, AtPSAT1. As to the kind of experiment: X-ray crystallography, […] Å. It is filed as binding. The note with it: PMP formed from PLP by addition of 10 mM Glu; not covalently bound to K265; pH 8.5, 0.2 M lithium sulfate.
For series [4], the target named is T1, AtPSAT1. As to the kind of experiment: X-ray crystallography, […] Å. Format: binding. Particulars: covalent; PLP-PSer geminal diamine intermediate also bound to K265; cocrystallized with 50 mM PSer, pH 8.5, no lithium sulfate.
Series [5] concerns the molecule itself. Nature of the series: SEC; HiLoad Superdex 200 16/60; 25 mM HEPES pH 7.4, 100 mM KCl, 50 mM NaCl, 1 mM TCEP; protein mass calculated from the retention volume (~80 kDa).

As to `N[C@@H](CCC(=O)O)C(=O)O` [Glu], the “first half-transamination observed in crystal” value on AtPSAT1 [1] was “electron density maps (Figures 6A,B) revealed the cofactor with the amino group already transferred from Glu”.

Consider `Cc1ncc(COP(=O)(O)O)c(C=O)c1O` [PLP], for which the crystal structure result on AtPSAT1 [2] was “The PLP prosthetic group creates a Schiff base (internal aldimine) between C4′ and Nζ of K265”.

As for `Cc1ncc(COP(=O)(O)O)c(CN)c1O` [PMP], on AtPSAT1 [3], the crystal structure result is reported as “Position of PMP is almost identical as PLP, thus its interactions with the protein are preserved”.

For the molecule `N[C@@H](COP(=O)(O)O)C(=O)O` [PSer], the crystal structure entry at AtPSAT1 [4] is “The bound PSer creates several hydrogen bonds in the active site”.

B1: Phosphoserine aminotransferase isoform 1 from Arabidopsis thaliana (AtPSAT1), residues 72-430 (enzyme, UniProt Q96255 72-430, looked up)
chain: RVFNFAAGPATLPENVLLKAQADLYNWRGSGMSVMEMSHRGKEFLSIIQKAESDLRQLLEIPQEYSVLFLQGGATTQFAALPLNLCKSDDTVDFVVTGSWGDKAVKEAKKYCKTNVIWSGKSEKYTKVPSFEELEQTPDAKYLHICANETIHGVEFKDYPVPKNGFLVADMSSNFCSKPVDVSKFGVIYGGAQKNVGPSGVTIVIIRKDLIGNAQDITPVMLDYKIHDENSSLYNTPPCFGIYMCGLVFEDLLEQGGLKEVEKKNQRKADLLYNAIEESNGFFRCPVEKSVRSLMNVPFTLEKSELEAEFIKEAAKEKMVQLKGHRSVGGMRASIYNAMPLAGVEKLVAFMKDFQAKHA
modifications: PLP covalently bound to the catalytic K265 (internal aldimine, 6czx); PMP not covalently bound (6czy); cofactor covalently bound to both K265 and PSer (geminal diamine, 6czz)
notes: Phosphoserine aminotransferase isoform 1, chloroplastic, Arabidopsis thaliana; subunit of 430 residues including the transit peptide; construct truncated before R72 (71-residue chloroplast transit peptide removed), residues 72-430, 359 residues; After TEV cleavage the N-terminal residues SNA remain in front of R72 (vector pMCSG68); Crystallised with 1 mM PLP; with 10 mM Glu (PMP form) or 50 mM …
In general, stoichiometry N refers to a count of units in the complex or per binding partner. With B1, in series [5], the “stoichiometry N” value is 2.
